Columns and labels:
A. niger = assay: Franz cell nail bioassay for anti-fungal gas penetration across a human nail; type: cell-based, Aspergillus niger; details: 4 applications every 2 h 10 min, read after 24 hours; agar 8 mm below nail
Experimental: After the agar had cooled and set, 25 μl of an A. niger spore suspension was pipetted onto the surface of the agar and a section of human nail fitted in an air-tight manner above the outlet hole, and clamped in place. The cells were then incubated at 32° C. for 24 h to obtain a carpet of mycelium.
The top of the funnel for all of the Franz cells was then covered with Parafilm. The cells were left at room temperature. After a period of 2 h 10 min, the solutions in each Franz cell were removed and replaced with an equivalent solution and the process repeated every 2 h and 10 min for a further […] applications, giving a total of 4 applications. After the final application of solution, the cells were left covered at room temperature, to allow slow growth of the organism for 24 h.

onychomycosis = details: cited from earlier work; for Safety concerns: in vivo, po

SMILES	Growth of A. niger mycelium under human nail (A. niger)	Safety concerns (onychomycosis)	Cure rates (onychomycosis; oral treatment) [%]
O=C(O)CC(O)(CC(=O)O)C(=O)O [citric acid]	full carpet of growth of mycelium		
CN(C/C=C/C#CC(C)(C)C)Cc1cccc2ccccc12 [terbinafine]		liver toxicity, severe skin reactions and drug interactions	~70
O=NO [sodium nitrite]	full carpet of growth of mycelium		
CCC(C)n1ncn(-c2ccc(N3CCN(c4ccc(OCC5COC(Cn6cncn6)(c6ccc(Cl)cc6Cl)O5)cc4)CC3)cc2)c1=O (centres unmarked) [itraconazole]		liver toxicity, severe skin reactions and drug interactions	

— US9381381B2, “Treatment of nail infections with no” (Aberdeen University, priority 2001, dated 2016)
